Laboratory results from patent US20110217740A1, “METHODS, MICROORGANISMS, AND COMPOSITIONS FOR PLANT BIOMASS PROCESSING” (University of Georgia Research, priority 2008, published 2011).

Tested on: A. thermophilum
Assay: Sensitivity of A. thermophilum to selective agents
Type: cell-based, Anaerocellum thermophilum
Conditions: selective agent in growth medium
Procedure: 5× Base Salts: 140.00 g/L NaCl, 17.50 g/L, MgSO4.7H2O, 13.50 g/L MgCl2.6H2O, 1.65 g/L KCl, 1.25 g/L NH4Cl, 0.70 g/L CaCl2.2H2O. Liquid complex cellobiose (CC) media (pH 6.8): 200 mL/L 5× Base salts, 1 mL/L 1000× Trace minerals, 100 μL/L 100 mM Na2WO4*2H2O, 50 μL/L Resazurin (5 mg/mL), 5 mL/L 10% w/v Yeast Extract, 50 mL/L 10% w/v Casein hydrolysate, 35 mL/L 10% w/v Cellobiose, 0.5 g/L Cysteine, 0.5g Na2S, 1 g/L NaHCO3, 1 mL/L 1M K2HPO4 buffer. Solid complex cellobiose (CC) media: 1× media +1% phytagel solution (Sigma Chemical Company, St. Louis, Mo.). CC plates containing 5-fluoroorotic acid (5-FOA): to ensure complete 5-FOA solvation, 1M NaOH is dripped into the solution until a murky consistency is reached at around pH 10, cysteine is then used to lower the pH to 7, where the solution turns transparent. Simvastatin plates: solid complex cellobiose plates with the indicated amount of simvastatin added. A. thermophilum is sensitive to 8 millimolar (mM) 5-FOA, 30 mM hygromycin, 8 micromolar (μM) simvastatin, and 50 μM apramycin.

Q: How did the “concentration to which A. thermophilum is sensitive” value (“concentration” below) turn out when `CCC(C)(C)C(=O)O[C@H]1C[C@@H](C)C=C2C=C[C@H](C)[C@H](CC[C@@H]3C[C@@H](O)CC(=O)O3)[C@H]21` [simvastatin] was run?
A: 8 µM

Q: With `CN[C@@H]1[C@@H](O[C@H]2O[C@H](CO)[C@@H](N)[C@H](O)[C@H]2O)OC2C[C@@H](N)[C@@H](O[C@H]3[C@H](O)[C@@H](O)[C@H](N)C[C@@H]3N)OC2[C@@H]1O` (stereo partly drawn) [apramycin] as the compound, how does the “concentration” value read?
A: 50 µM

Q: For `O=C(O)c1[nH]c(=O)[nH]c(=O)c1F` [5-FOA, 5-fluoroorotic acid], which “concentration” value is on record?
A: 8000 µM
